Test results from PubChem BioAssay (NCI).
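Briefly, cells in 96-well plates were exposed to five compound concentrations for 48 h, and endpoints were estimated by linear interpolation. TGI is the concentration that stops growth completely.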

Experiments:
Assay in all cases: DTP human tumour cell line panel, 48 h
SW-620 colon = tested on: SW-620 colon
UACC-62 melanoma = tested on: UACC-62 melanoma
NCI-H226 lung = tested on: NCI-H226 lung
SF-295 CNS = tested on: SF-295 CNS
HCC-2998 colon = tested on: HCC-2998 colon
MDA-MB-435 = tested on: MDA-MB-435
HCT-15 colon = tested on: HCT-15 colon
OVCAR-4 ovarian = tested on: OVCAR-4 ovarian
HS 578T breast = tested on: HS 578T breast
HOP-62 NSCLC = tested on: HOP-62 NSCLC
SF-539 CNS = tested on: SF-539 CNS
A498 renal = tested on: A498 renal
NCI-H522 lung = tested on: NCI-H522 lung
CCRF-CEM leukemia = tested on: CCRF-CEM leukemia
OVCAR-3 ovarian = tested on: OVCAR-3 ovarian
MDA-N = tested on: MDA-N
IGROV1 ovarian = tested on: IGROV1 ovarian
UO-31 renal = tested on: UO-31 renal
EKVX NSCLC = tested on: EKVX NSCLC
UACC-257 melanoma = tested on: UACC-257 melanoma
NCI-H23 lung = tested on: NCI-H23 lung
A549 NSCLC = tested on: A549 NSCLC
T-47D breast = tested on: T-47D breast
BT-549 breast = tested on: BT-549 breast
SN12C renal = tested on: SN12C renal
MCF7 breast = tested on: MCF7 breast
HOP-92 NSCLC = tested on: HOP-92 NSCLC
OVCAR-5 ovarian = tested on: OVCAR-5 ovarian
SK-OV-3 ovarian = tested on: SK-OV-3 ovarian
SNB-75 CNS = tested on: SNB-75 CNS
NCI/ADR-RES ovarian = tested on: NCI/ADR-RES ovarian
HL-60(TB) leukemia = tested on: HL-60(TB) leukemia
TK-10 renal = tested on: TK-10 renal
SNB-19 CNS = tested on: SNB-19 CNS
LOX IMVI melanoma = tested on: LOX IMVI melanoma
U251 CNS = tested on: U251 CNS
M14 melanoma = tested on: M14 melanoma
SR leukemia = tested on: SR leukemia
786-0 renal = tested on: 786-0 renal
PC-3 prostate = tested on: PC-3 prostate
SK-MEL-5 melanoma = tested on: SK-MEL-5 melanoma
HT29 colon = tested on: HT29 colon
COLO 205 colon = tested on: COLO 205 colon
NCI-H460 lung = tested on: NCI-H460 lung
MDA-MB-231 breast = tested on: MDA-MB-231 breast
SK-MEL-2 melanoma = tested on: SK-MEL-2 melanoma
RPMI-8226 leukemia = tested on: RPMI-8226 leukemia
ACHN renal = tested on: ACHN renal
SK-MEL-28 melanoma = tested on: SK-MEL-28 melanoma
KM12 colon = tested on: KM12 colon
OVCAR-8 ovarian = tested on: OVCAR-8 ovarian
SF-268 CNS = tested on: SF-268 CNS
MALME-3M melanoma = tested on: MALME-3M melanoma
HCT-116 colon = tested on: HCT-116 colon
DU-145 prostate = tested on: DU-145 prostate
RXF 393 renal = tested on: RXF 393 renal
K-562 leukemia = tested on: K-562 leukemia
CAKI-1 renal = tested on: CAKI-1 renal
MOLT-4 leukemia = tested on: MOLT-4 leukemia

C/C(=N/NC(=S)N(C)C)c1ccccc1O
TGI (SW-620 colon): > 100 µM | TGI (UACC-62 melanoma): 27 µM | TGI (NCI-H226 lung): > 66.3 µM | TGI (SF-295 CNS): > 100 µM | TGI (HCC-2998 colon): > 100 µM | TGI (MDA-MB-435): > 100 µM | TGI (HCT-15 colon): > 100 µM | TGI (OVCAR-4 ovarian): > 85 µM | TGI (HS 578T breast): > 100 µM | TGI (HOP-62 NSCLC): > 100 µM | TGI (SF-539 CNS): 50.3 µM | TGI (A498 renal): 97.9 µM | TGI (NCI-H522 lung): > 100 µM | TGI (CCRF-CEM leukemia): 21 µM | TGI (OVCAR-3 ovarian): > 26.3 µM | TGI (MDA-N): > 100 µM | TGI (IGROV1 ovarian): > 100 µM | TGI (UO-31 renal): > 100 µM | TGI (EKVX NSCLC): > 100 µM | TGI (UACC-257 melanoma): 63.4 µM | TGI (NCI-H23 lung): > 100 µM | TGI (A549 NSCLC): > 100 µM | TGI (T-47D breast): > 85.8 µM | TGI (BT-549 breast): > 100 µM | TGI (SN12C renal): > 100 µM | TGI (MCF7 breast): > 40.4 µM | TGI (HOP-92 NSCLC): > 100 µM | TGI (OVCAR-5 ovarian): > 100 µM | TGI (SK-OV-3 ovarian): > 100 µM | TGI (SNB-75 CNS): 82.9 µM | TGI (NCI/ADR-RES ovarian): 13.8 µM | TGI (HL-60(TB) leukemia): > 51.9 µM | TGI (TK-10 renal): > 100 µM | TGI (SNB-19 CNS): > 100 µM | TGI (LOX IMVI melanoma): > 75.1 µM | TGI (U251 CNS): > 100 µM | TGI (M14 melanoma): 23.4 µM | TGI (SR leukemia): > 39.5 µM | TGI (786-0 renal): > 100 µM | TGI (PC-3 prostate): > 100 µM | TGI (SK-MEL-5 melanoma): > 49.8 µM | TGI (HT29 colon): > 100 µM | TGI (COLO 205 colon): > 58.6 µM | TGI (NCI-H460 lung): 30.1 µM | TGI (MDA-MB-231 breast): > 100 µM | TGI (SK-MEL-2 melanoma): > 100 µM | TGI (RPMI-8226 leukemia): > 100 µM | TGI (ACHN renal): > 76.5 µM | TGI (SK-MEL-28 melanoma): > 100 µM | TGI (KM12 colon): > 100 µM | TGI (OVCAR-8 ovarian): > 74.4 µM | TGI (SF-268 CNS): > 38.2 µM | TGI (MALME-3M melanoma): > 76.1 µM | TGI (HCT-116 colon): 34.8 µM | TGI (DU-145 prostate): > 100 µM | TGI (RXF 393 renal): > 100 µM | TGI (K-562 leukemia): > 100 µM | TGI (CAKI-1 renal): > 100 µM | TGI (MOLT-4 leukemia): 97.7 µM

Oc1cc(Cl)cc2cc(Cl)cnc12
TGI (SW-620 colon): > 100 µM | TGI (UACC-62 melanoma): 7.81 µM | TGI (NCI-H226 lung): 92.2 µM | TGI (SF-295 CNS): 88.7 µM | TGI (HCC-2998 colon): 65.9 µM | TGI (MDA-MB-435): > 100 µM | TGI (HCT-15 colon): 27.3 µM | TGI (OVCAR-4 ovarian): > 100 µM | TGI (HS 578T breast): > 100 µM | TGI (HOP-62 NSCLC): 89.9 µM | TGI (SF-539 CNS): > 100 µM | TGI (A498 renal): 34.5 µM | TGI (NCI-H522 lung): 24.3 µM | TGI (CCRF-CEM leukemia): 6.37 µM | TGI (OVCAR-3 ovarian): 5.43 µM | TGI (MDA-N): > 100 µM | TGI (IGROV1 ovarian): 22.6 µM | TGI (UO-31 renal): 20.5 µM | TGI (EKVX NSCLC): 10.6 µM | TGI (UACC-257 melanoma): > 100 µM | TGI (NCI-H23 lung): 24.4 µM | TGI (A549 NSCLC): > 100 µM | TGI (T-47D breast): 9.95 µM | TGI (BT-549 breast): > 100 µM | TGI (SN12C renal): > 100 µM | TGI (MCF7 breast): 54.6 µM | TGI (HOP-92 NSCLC): 74.1 µM | TGI (OVCAR-5 ovarian): > 100 µM | TGI (SK-OV-3 ovarian): > 100 µM | TGI (SNB-75 CNS): 94 µM | TGI (NCI/ADR-RES ovarian): 6.67 µM | TGI (HL-60(TB) leukemia): 0.902 µM | TGI (TK-10 renal): 76.2 µM | TGI (SNB-19 CNS): > 100 µM | TGI (LOX IMVI melanoma): 13.1 µM | TGI (U251 CNS): > 100 µM | TGI (M14 melanoma): > 100 µM | TGI (SR leukemia): 13.6 µM | TGI (786-0 renal): > 100 µM | TGI (PC-3 prostate): > 100 µM | TGI (SK-MEL-5 melanoma): 53.3 µM | TGI (HT29 colon): > 100 µM | TGI (COLO 205 colon): > 100 µM | TGI (NCI-H460 lung): 14 µM | TGI (MDA-MB-231 breast): 77.2 µM | TGI (RPMI-8226 leukemia): 12.2 µM | TGI (ACHN renal): 21.3 µM | TGI (SK-MEL-28 melanoma): > 100 µM | TGI (KM12 colon): > 100 µM | TGI (OVCAR-8 ovarian): > 100 µM | TGI (SF-268 CNS): > 100 µM | TGI (MALME-3M melanoma): 34.9 µM | TGI (HCT-116 colon): > 100 µM | TGI (DU-145 prostate): > 100 µM | TGI (RXF 393 renal): 48.2 µM | TGI (K-562 leukemia): 10.6 µM | TGI (CAKI-1 renal): 57.7 µM | TGI (MOLT-4 leukemia): 11.5 µM

Nc1nc(Nc2ccc(Cl)cc2)sc1C(=O)c1c[nH]c2ccccc12
TGI (SW-620 colon): > 100 µM | TGI (UACC-62 melanoma): 28 µM | TGI (NCI-H226 lung): 46.1 µM | TGI (HCC-2998 colon): 24.1 µM | TGI (MDA-MB-435): 47.5 µM | TGI (HCT-15 colon): 15.2 µM | TGI (OVCAR-4 ovarian): 51.7 µM | TGI (HS 578T breast): 71.3 µM | TGI (HOP-62 NSCLC): 46.9 µM | TGI (SF-539 CNS): 31.6 µM | TGI (A498 renal): 23.3 µM | TGI (CCRF-CEM leukemia): > 100 µM | TGI (OVCAR-3 ovarian): 36 µM | TGI (MDA-N): 25.3 µM | TGI (IGROV1 ovarian): 37.1 µM | TGI (UO-31 renal): 34.2 µM | TGI (UACC-257 melanoma): 19.7 µM | TGI (NCI-H23 lung): 27.8 µM | TGI (A549 NSCLC): 29.5 µM | TGI (T-47D breast): 92.3 µM | TGI (BT-549 breast): 34 µM | TGI (SN12C renal): 29 µM | TGI (MCF7 breast): 31 µM | TGI (HOP-92 NSCLC): 36.2 µM | TGI (OVCAR-5 ovarian): 46.2 µM | TGI (SK-OV-3 ovarian): 46.4 µM | TGI (SNB-75 CNS): 24.3 µM | TGI (NCI/ADR-RES ovarian): 33.1 µM | TGI (HL-60(TB) leukemia): 82.8 µM | TGI (TK-10 renal): 31.8 µM | TGI (SNB-19 CNS): 38 µM | TGI (LOX IMVI melanoma): 43.8 µM | TGI (U251 CNS): 25.1 µM | TGI (M14 melanoma): 23.5 µM | TGI (SR leukemia): > 100 µM | TGI (786-0 renal): 15.6 µM | TGI (PC-3 prostate): 27.9 µM | TGI (SK-MEL-5 melanoma): 24.3 µM | TGI (HT29 colon): 20 µM | TGI (COLO 205 colon): 18 µM | TGI (NCI-H460 lung): 21.3 µM | TGI (MDA-MB-231 breast): 35 µM | TGI (SK-MEL-2 melanoma): 28.4 µM | TGI (RPMI-8226 leukemia): > 100 µM | TGI (ACHN renal): 36.2 µM | TGI (SK-MEL-28 melanoma): 39.8 µM | TGI (KM12 colon): 51.1 µM | TGI (SF-268 CNS): 60 µM | TGI (MALME-3M melanoma): 31.2 µM | TGI (HCT-116 colon): 23.1 µM | TGI (DU-145 prostate): 38.9 µM | TGI (RXF 393 renal): 44.1 µM | TGI (K-562 leukemia): > 100 µM
